Assay type in all cases: in vivo
For data set [1], the system named is E. coli CFT073. Briefly: Treatment of Irf3−/− mice after intravesical E. coli CFT073 infection: Irf7 siRNA compared with antibiotic therapy (Example 5). The conditions noted are these: for number (frequency) of abscesses: siRNA intravenously and intravesically 24 hours and 4 days after infection, vs untreated. The protocol: Irf7 siRNA treatment was compared with antibiotic therapy. Groups of 6 Irf3^−/− mice were treated intravenously and intravesically with siRNA as described in Example 3, 24 hours and 4 days after intravesical infection with E. coli CFT073. The 24 hour time point corresponds to the time of acute symptoms, when patients are first diagnosed with febrile urinary tract infection (UTI) and treatment is initiated.
Also at that time, and following infection with E. coli CFT073, Irf3 mice were treated with the third-generation cephalosporin broad-spectrum antibiotic, Cefotaxime (STRAGEN Nordic A/S) at a dose of 100 or 400 mg/kg body weight. Cefotaxime was given by intraperitoneal injection twice a day for 6 days starting 24 hours after infection.
After 7 days, the mice were sacrificed, and kidney pathology and inflammation as quantified by neutrophil numbers in urine was assessed. Bacterial clearance was also assessed in SiRNA treated mice by measuring bacterial counts in urine. The results are shown in FIGS. 9A-E and 10A-D respectively.

In data set [2] the test system is pro-inflammatory genes and pathology network genes. Kind of data set: Whole genome transcriptomic analysis of kidneys from Irf7 siRNA treated mice. The source says: (§1) Ambion In Vivo Negative Control siRNA was given as a control (Life Technologies, 4457287). For transcriptomic analysis, total RNA was isolated from the kidney of Irf3^−/− mice using mirVana miRNA Isolation Kit (Ambion by Life Technologies) followed by organic extraction using Acid-Phenol:Chloroform. The analysis was done in-house using Mouse Genome 430 PM array strips and GeneAtlas system (Affymetrix).

Another data set concerns IRF-7. Kind of data set: Immunohistochemistry of IRF-7 in renal pelvic mucosa of siRNA treated mice. To be noted: Irf3−/− mice, 7 days after infection.
In the next data set the test system is STAT3. Kind of data set: Immunohistochemistry of submucosal STAT3 in kidneys of siRNA treated mice. To be noted: Irf3−/− mice, 7 days after infection.
Data set [3] relates to E. coli CFT073. Kind of data set: Irf7 siRNA therapy given before intravesical E. coli CFT073 infection of susceptible Irf3−/− mice (Example 3). The protocol: Anesthetized mice (Isofluoran) were infected by intravesical inoculation with E. coli CFT073 (10^8 CFU in 0.1 mL) as described (Hagberg et al., Infection and immunity (1983) 40, 273-283). Overnight static cultures of E. coli CFT073 in Luria broth were used for animal inoculations.
Animals were sacrificed after 7 days under anesthesia, kidneys were aseptically removed and macroscopic pathology was documented by photography. Tissues were divided for RNA extraction (on dry ice), histology and immunostaining (in O.C.T. compound, VWR) and frozen in separate vials at −80° C. Infection was assessed by viable counts of homogenized whole kidney (in 5 mL PBS). Urine samples were collected prior to and at regular times after infection and quantitatively cultured. Neutrophil numbers were quantified in uncentrifuged urine by use of a hemocytometer.
siRNA therapy was used to confirm the role of Irf7 in pathology. Irf3^−/− mice were subjected to siRNA treatment at a dose of 5 mg/kg. A dose (300 μL) of Silencer Select Pre-designed Irf7 siRNA (Life Technologies, 4404010 #s79411) was injected into the tail vein (200 μL) and intravesically (100 μL), three days prior to and on the day of infection with Invivofectamine reagent (Life Technologies, 1377501) (FIG. 5A). The siRNA used was as follows:
as §1
After 7 days following infection, mice were sacrificed. The disease phenotype was defined by macroscopic kidney pathology, number of abscesses, bacterial counts in urine and kidneys, urine neutrophil numbers and tissue imaging (FIGS. 5B and 5D). Irf7 siRNA-treated mice were compared to infected controls receiving irrelevant siRNA with Invivofectamine® or no treatment.

The mark [4] stands for this setting: Cefotaxime 100 or 400 mg/kg intraperitoneal twice a day for 6 days starting 24 hours after infection, 7 days.
[5] abbreviates: kidneys of Irf7 siRNA treated Irf3−/− mice infected with CFT073 vs untreated controls.
Where [6] appears, read: abscesses, 7 days after infection.
[7] abbreviates: siRNA 24 hours and 4 days after infection, 7 days.
Where [8] appears, read: Irf3−/− mice, siRNA 5 mg/kg three days prior to and on the day of infection, 7 days after infection.
Setting [9] is: immunohistochemistry 7 days after infection, vs negative control siRNA treated or untreated Irf3−/− mice.

“Also recorded” adds a separate entry of the source.

From US10287585B2, “Therapy” (priority 2015, dated 2019) come the findings set out here.

On to `CO/N=C(\C(=O)N[C@@H]1C(=O)N2C(C(=O)O)=C(COC(C)=O)CS[C@H]12)c1csc(N)n1` [Cefotaxime, reference compound], for which, in the data set on E. coli CFT073 [1] (setting [4]), the frequency of abscesses result was “reduced” and the “neutrophil numbers in urine (inflammation)” value is “reduced”.
In the case of “Irf7 siRNA: Silencer Select Pre-designed Irf7 siRNA (Life Technologies, 4404010 #s79411); sense GUGUUUACGAGGAACCCUAtt, antisense UAGGGUUCCUCGUAAACACgg; delivered with Invivofectamine (sense GUGUUUACGAGGAACCCUATT; antisense UAGGGUUCCUCGUAAACACGG; chemistry not given here)”, in data set [2] (Irf7 siRNA treated mice, as stated in Example 5), the pathology-associated gene expression result is reported as “absence”. In data set [2] (setting [5]), the Tlr4 expression entry is listed as “activated”; the “expression of pro-inflammatory genes and transcriptional regulators (chemokines, Irf7, Stat3, Jun)” value is listed as “suppressed”. Also, in data set [2] (kidneys of siRNA treated Irf3−/− mice), the “transcript levels overall and of pathology-associated genes (Stat3, S100a8, Cxcl2, Junb)” value is listed as “suppressed”. Further, the “mucosal IRF-7 expression (staining) in renal pelvic mucosa” value in the data set on IRF-7 is on record as “Suppression; also recorded: Inhibition”. In the data set with IRF-7 (listed as siRNA), the “mucosal IRF-7 expression (staining) in renal pelvic mucosa” value is on record as “Reduced”. In addition, the “submucosal STAT3 staining” value with STAT3 is “reduced; also recorded: inhibited”. In the data set with E. coli CFT073 [1] (setting [6]), the “effect compared with 100 mg/kg of Cefotaxime” value is “similar” and the “effect compared with 400 mg/kg of Cefotaxime” value is recorded as “lower”. In the data set on E. coli CFT073 [1] (setting [7]), the “bacterial counts in urine (bacterial clearance)” value was “lower” and the “neutrophil numbers in urine (magnitude of the neutrophil infiltrate)” value is given as “reduced”. Moreover, the “neutrophil numbers in urine (magnitude of the neutrophil infiltrate)” value in the data set on E. coli CFT073 [1] (siRNA 24 hours and 4 days after infection, 7 days, listed as SiRNA) was “significantly reduced”. For the same compound, the “number (frequency) of abscesses” value in the data set with E. coli CFT073 [1] (7 days after infection) is “reduced”. Further, in the data set with E. coli CFT073 [1] (7 days after infection, listed as SiRNA), the “number (frequency) of abscesses” value is listed as “significantly reduced”. The “macroscopic kidney pathology and tissue damage” value in the data set with E. coli CFT073 [3] (Irf3−/− mice, siRNA 5 mg/kg tail vein + intravesically, three days prior to and on the day of infection, 7 days after infection, vs irrelevant siRNA or untreated) is listed as “Reduction”. Further, in the data set on E. coli CFT073 [3] (setting [8]), the “bacterial counts in urine and renal tissue” value is “reduction; also recorded: lower”; the “neutrophil recruitment (neutrophil numbers in urine)” value is “reduction; also recorded: reduced”. Moreover, the frequency of abscesses entry in the data set on E. coli CFT073 [3] (Irf3−/− mice, siRNA three days prior to and on the day of infection, 7 days after infection, n=3-8) is “reduced”. Besides, in the data set with E. coli CFT073 [3] (setting [9]), the “bacterial staining, frozen kidney tissue sections” value is listed as “markedly reduced” and the “neutrophil staining, frozen kidney tissue sections” value was “markedly reduced”.
